Data published in doi:10.1101/2024.10.29.620944v2, “Discovery and isolation of novel capsaicinoids and their TRPV1-related activity” (biorxiv, 2025).
Read-outs that look alike come from different tables or passages of the source.

Tests used:
[1] = target: T1, rat TRPV1 receptor (rTRPV1) (Rattus norvegicus, UniProt O35433); experiment: Fluo-4 calcium influx assay, FDSS, irTRPV1-FlpIn293 cells; type: cell-based
T1 construct: rat TRPV1 stably expressed under doxycycline control (Tet-on) in Flp-In T-REx-293 cells (irTRPV1-FlpIn293); homotetramer
T1 sequence (O35433 whole entry): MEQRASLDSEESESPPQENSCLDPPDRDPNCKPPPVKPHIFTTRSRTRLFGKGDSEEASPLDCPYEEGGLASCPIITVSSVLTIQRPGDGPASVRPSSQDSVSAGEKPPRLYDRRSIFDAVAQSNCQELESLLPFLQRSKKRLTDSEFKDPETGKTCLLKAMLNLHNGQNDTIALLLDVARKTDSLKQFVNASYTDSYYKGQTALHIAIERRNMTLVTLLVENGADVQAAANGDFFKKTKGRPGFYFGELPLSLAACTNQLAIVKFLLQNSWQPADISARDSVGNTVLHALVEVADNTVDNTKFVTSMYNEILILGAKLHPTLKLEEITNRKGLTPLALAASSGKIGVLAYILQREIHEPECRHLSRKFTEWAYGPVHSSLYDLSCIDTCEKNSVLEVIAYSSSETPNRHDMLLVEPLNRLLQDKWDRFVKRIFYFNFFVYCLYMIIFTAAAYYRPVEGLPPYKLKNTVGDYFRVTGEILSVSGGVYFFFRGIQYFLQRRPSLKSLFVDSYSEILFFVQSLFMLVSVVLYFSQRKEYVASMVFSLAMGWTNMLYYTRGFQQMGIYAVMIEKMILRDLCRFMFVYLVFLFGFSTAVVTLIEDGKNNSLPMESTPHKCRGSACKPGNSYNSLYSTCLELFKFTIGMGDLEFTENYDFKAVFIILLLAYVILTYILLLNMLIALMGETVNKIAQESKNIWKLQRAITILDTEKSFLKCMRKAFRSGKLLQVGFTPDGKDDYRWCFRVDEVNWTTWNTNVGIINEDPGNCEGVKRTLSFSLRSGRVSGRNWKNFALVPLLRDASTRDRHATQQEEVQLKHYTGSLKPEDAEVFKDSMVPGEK

[2] = target: T1, rat TRPV1 receptor (rTRPV1); experiment: cell-based
Description: Purchased capsaicinoid standards, capsiate (both MedChemExpress), vanillin (Honeywell Fluka) and 4-hydroxy-3-methoxybenzyl alcohol (Alfa Aesar) and AMG-517 (TargetMol, Boston, MA, USA) were all dissolved in DMSO to 10 mM as stock solutions. Stably transfected irTRPV1-FlpIn293 cells with Tet-on system (procedure described in Supplementary Methods 1.3) were grown to confluence in Advanced Dulbecco’s Modified Eagle Medium (Adv-DMEM/F12, #12634) supplemented with 10% FBS, 1% Pen Strep, 1% Glutamax (all Gibco, Thermo Fisher Scientific). Forty-eight hours before the experiment, doxycycline (final concentration 1 μg/mL)(Sigma-Aldrich, St.Luid, Mi., USA) and 10 μM ruthenium red (RR; Merck KGaG, Darmstadt, Germany) were added to the media to induce TRPV1 expression. After 24 hours, the cells were washed and detached with 0.5% trypsin–EDTA in PBS (Gibco). Cells resuspended in blocking media (Adv-DMEM/F12 + 10% FBS + 10 μM RR) were counted and then seeded into a 384-well plate (3674, Corning, Corning, NY, USA) in the amount of 3×10^4 per well. Twenty-four hours after seeding, a 2× Fluo-4 direct dye solution (Invitrogen, Thermo Fisher Scientific), dissolved in HHBS buffer, pH ∼ 7.4, was added to well with cells and incubated for 30 minutes at 37°C and then for 40 minutes at room temperature. Once incubated with the dye, the supernatant was removed using BlueWasher (BlueCatbio NH Inc., Lebanon, NH, USA) and changed to an HHBS + 10 μM sulfinpyrazone (Merck KGaG) solution added by Certus (Fritz Gyger AG, Gwatt, Switzerland), followed by 10 minutes of incubation in FDSS μCell (∼ 30°C; Hamamatsu, Hamamatsu city, Japan). A separate compound plate was prepared using an Echo dispenser 650 (Beckman Coulter Inc.,Brea, CA, USA). The final concentration was reached by adding HHBS + 10 μM sulfinpyrazone as above by Certus. The rTRPV1 activity measurement started by recording the baseline (40 s, sample interval 0.339 s). Then the compounds/compound mixture were transferred to the dedicated wells by tips while the recording was running for the next 5 minutes.

[3] = target: T1, rat TRPV1 receptor (rTRPV1); experiment: cell-based; parameters: species or system irTRPV1-FlpIn293 (HEK293); Fluo-4 calcium influx, FDSS, TRPV1 activation
Description: Purchased capsaicinoid standards, capsiate (both MedChemExpress), vanillin (Honeywell Fluka) and 4-hydroxy-3-methoxybenzyl alcohol (Alfa Aesar) and AMG-517 (TargetMol, Boston, MA, USA) were all dissolved in DMSO to 10 mM as stock solutions. Stably transfected irTRPV1-FlpIn293 cells with Tet-on system (procedure described in Supplementary Methods 1.3) were grown to confluence in Advanced Dulbecco’s Modified Eagle Medium (Adv-DMEM/F12, #12634) supplemented with 10% FBS, 1% Pen Strep, 1% Glutamax (all Gibco, Thermo Fisher Scientific). Forty-eight hours before the experiment, doxycycline (final concentration 1 μg/mL)(Sigma-Aldrich, St.Luid, Mi., USA) and 10 μM ruthenium red (RR; Merck KGaG, Darmstadt, Germany) were added to the media to induce TRPV1 expression. After 24 hours, the cells were washed and detached with 0.5% trypsin–EDTA in PBS (Gibco). Cells resuspended in blocking media (Adv-DMEM/F12 + 10% FBS + 10 μM RR) were counted and then seeded into a 384-well plate (3674, Corning, Corning, NY, USA) in the amount of 3×10^4 per well. Twenty-four hours after seeding, a 2× Fluo-4 direct dye solution (Invitrogen, Thermo Fisher Scientific), dissolved in HHBS buffer, pH ∼ 7.4, was added to well with cells and incubated for 30 minutes at 37°C and then for 40 minutes at room temperature. […]

[4] = Flp-In-T-REx-293; read-out: Top

Compound	EC50 ([1]; read-out: EC50) [nM]	Emax [2, 4] [%]	also measured
COc1cc(CNC(=O)CCCCCC(=O)C(C)C)ccc1O [compound 31, N-(4-Hydroxy-3-methoxybenzyl)-8-methyl-7-oxononanamide]	560	84.2	EC50 [2]: 602 nM
COc1cc(CNC(=O)CCCC/C=C/C(C)CO)ccc1O (stereo not drawn) [compound 22, ω-Hydroxycapsaicin]	5560	90	
COc1cc(CNC(=O)CCCC/C=C/C(C)C)ccc1O[C@@H]1O[C@H](CO)[C@@H](O)[C@H](O)[C@H]1O [compound 24, Capsaicin β-D-glucopyranoside]	4690	102	
COc1cc(CNC(=O)CC/C=C/C=C/C(C)C)ccc1O [compound 16, N-vanillyl-4E,6E-dien-8-methylnonanamide]	140	94.3	
COc1cc(CNC(=O)CCCCCCC(C)C)ccc1O [compound 2, Dihydrocapsaicin]	50		
COc1cc(CNC(=O)CCCCC(C)C)ccc1O [compound 27, Nornordihydrocapsaicin]	1040	94.8	
CCCCCCCC(=O)NCc1ccc(O)c(OC)c1 [compound 13, N-vanillyl octanamide]	150	93.7	
CCCCCCCCC(=O)NCc1ccc(O)c(OC)c1 [compound 17, Nonivamide]			Emax ([2]; Flp-In-T-REx-293, read-out: Top): 105%
COc1cc(CNC(=O)CCCCCCCC(C)O)ccc1O (stereo not drawn) [compound 33, N-vanillyl-9-hydroxydecanamide]	6330	96.5	
CCCCCCCCCC(=O)NCc1ccc(O)c(OC)c1 [compound 14, N-Vanillyldecanamide]	200	114	
COc1cc(CNC(=O)CC/C=C/C(C)C)ccc1O [compound 10, Nornorcapsaicin]	810	77.8	
COc1cc(CNC(=O)CCCCCC(O)C(C)C)ccc1O (stereo not drawn) [compound 34, N-vanillyl-7-hydroxy-8-methylnonamide]	1460	90.6	
COc1cc(CNC(=O)CCCC/C=C/C(C)C)cc(-c2cc(CNC(=O)CCCCCCC(C)C)cc(OC)c2O)c1O [compound 23, 6″,7″-Dihydro-5′,5‴-dicapsaicin]		90.7	EC50 ([1]; agonist, HHBS pH ~7.4, ~30 °C, unreliable (sample 79.94% pure, trace monomers may inflate the potency), read-out: EC50): 10270 nM; EC50 [2]: 10300 nM
CCCCCCC(=O)NCc1ccc(O)c(OC)c1 [compound 26, N-Heptanoate vanillylamide]	1810	114	
CCCCCCCC/C=C\CCCCCCCC(=O)NCc1ccc(O)c(OC)c1 [compound 20, Olvanil]	120	40.4	
COc1cc(CNC(=O)CCCCCCCC(C)C)ccc1O [compound 4, Homodihydrocapsaicin I]	320		
COc1cc(CNC(=O)CCCC/C=C/C(C)C)cc(-c2cc(CNC(=O)CCCC/C=C/C(C)C)cc(OC)c2O)c1O [compound 38, 5,5’-dicapsaicin]		83.3	EC50 ([1]; agonist, HHBS pH ~7.4, ~30 °C, unreliable (trace monomers may inflate the potency)): 4.46E-06 (95% CI 3.848e-006 to 5.265e-006) M
COc1cc(CNC(=O)C=CC=CC(C)C)ccc1O [compound 35, N-vanillyl 6-Methyl-2,4-heptadienamide]	1200	77.8	
COc1cc(CNC(=O)CC(C)C)ccc1O [compound 30, N-isovalerylvanillylamin]	2840	80	
COc1cc(CNC(=O)CCCCC2OC2C(C)C)ccc1O (stereo not drawn) [compound 32, Epicapsaicin]	600	110	EC50 [2]: 1110 nM
COc1cc(COC(=O)CCCC/C=C/C(C)C)ccc1O [compound 39, capsiate]			EC50 [3]: 491000 nM
COc1cc(CNC(=O)CCCCCC(C)C)ccc1O [compound 11, Nordihydrocapsaicin]			EC50 [2]: 53.4 nM
